Measured values published in publication PMC6395927, “Rufomycin Targets ClpC1 Proteolysis in Mycobacterium tuberculosis and M. abscessus” (Antimicrobial Agents and Chemotherapy, 2019).
Values after ≈ are worked out from the molar mass of the structure shown. Numbered stars: 1 amine (or outer) side, 2 acyl side, 3 side chain; on linkers, the order of the positions; unused ones are H or OH. Bridge positions count the residues as written; N and C are the ends. Square brackets hold non-standard residues; d marks the D form. Peptide text beside a SMILES is read from it. * marks the point of attachment. ξ: configuration not given here. NMeTrp(4-OMe) = CN[CH](Cc1c[nH]c2cccc(OC)c12)C(=O)O; X1 = O=C(C(N[*:1])C(O)c1ccccc1)[*:2]; NMeI = CC[CH](C)[CH](NC)C(=O)O; ξNMe2Val = CC(C)C(C(=O)*)N(C)C; NMeT = CN[CH](C(=O)O)[CH](C)O; NMeL = CN[CH](CC(C)C)C(=O)O; NMeV = CN[CH](C(=O)O)C(C)C

Tests used:
[1] = test system: nonreplicating cultures of M. tuberculosis; assay: microbe, parasite or virus in culture; type: cell-based, Mycobacterium tuberculosis; conditions: Mycobacterium tuberculosis
[2] = test system: M. tuberculosis strain H37Rv (ATCC 27294); assay: microbe, parasite or virus in culture; type: cell-based, Mycobacterium tuberculosis; conditions: Mycobacterium tuberculosis
M. chelonae (ATCC 35752) = assay: microbe, parasite or virus in culture; type: cell-based, Mycobacterium chelonae; conditions: Mycobacteroides chelonae, ATCC35752; M. chelonae; read-out: MIC
M. marinum (ATCC 927) = assay: microbe, parasite or virus in culture; type: cell-based; conditions: Mycobacterium marinum, ATCC927; M. marinum; read-out: MIC
[3] = test system: Escherichia coli (ATCC 25922); assay: MIC against nonmycobacteria (OD570); type: cell-based; conditions: ATCC25922, E. coli
Source text: (§1) Standard compounds used were ampicillin (AMP) and gentamicin (GEN). […] Amphotericin B (AmphB) and ketoconazole (KETO) were used as standard compounds.

[4] = test system: Staphylococcus aureus (ATCC 29213); assay: MIC against nonmycobacteria (OD570); type: cell-based; conditions: ATCC29213, S. aureus
Source text: as §1

[5] = test system: Candida albicans (ATCC 10231); assay: MIC against nonmycobacteria (OD570); type: cell-based; conditions: ATCC10231, C. albicans
Source text: as §1

M. avium (ATCC 15769) = assay: microbe, parasite or virus in culture; type: cell-based; conditions: Mycobacterium avium, ATCC15769; M. avium; read-out: MIC
M. tuberculosis = assay: microbe, parasite or virus in culture; type: cell-based, Mycobacterium tuberculosis; conditions: Mycobacterium tuberculosis, read-out: MBC (minimum bactericidal concentration)
[6] = test system: M. smegmatis (ATCC 700084); assay: microbe, parasite or virus in culture; type: cell-based; conditions: Mycolicibacterium smegmatis, ATCC700084; M. smegmatis; read-out: MIC
M. kansasii (ATCC 12478) = assay: microbe, parasite or virus in culture; type: cell-based; conditions: Mycobacterium kansasii, ATCC12478; M. kansasii; read-out: MIC
M. bovis (ATCC 35734) = assay: microbe, parasite or virus in culture; type: cell-based; conditions: Mycobacterium tuberculosis variant bovis, ATCC35734
[7] = ECU, micelle formulation; cited from earlier work
ClpC1/P1/P2 complex = ClpC1/P1/P2 complex (Mycobacterium tuberculosis, UniProt P9WPC9); type: biochemical, M. tuberculosis
[8] = test system: M. abscessus (ATCC 19977); assay: microbe, parasite or virus in culture; type: cell-based, Mycobacterium abscessus; conditions: Mycobacteroides abscessus, ATCC19977, M. abscessus; read-out: MIC
[9] = test system: M. tuberculosis 5 global clade representatives; assay: microbe, parasite or virus in culture; type: cell-based; conditions: Mycobacterium tuberculosis, read-out: MICs
ClpC1 = ClpC1 (Mycobacterium tuberculosis, UniProt P9WPC9); type: biochemical, M. tuberculosis
Sequence of ClpC1 (P9WPC9 whole entry): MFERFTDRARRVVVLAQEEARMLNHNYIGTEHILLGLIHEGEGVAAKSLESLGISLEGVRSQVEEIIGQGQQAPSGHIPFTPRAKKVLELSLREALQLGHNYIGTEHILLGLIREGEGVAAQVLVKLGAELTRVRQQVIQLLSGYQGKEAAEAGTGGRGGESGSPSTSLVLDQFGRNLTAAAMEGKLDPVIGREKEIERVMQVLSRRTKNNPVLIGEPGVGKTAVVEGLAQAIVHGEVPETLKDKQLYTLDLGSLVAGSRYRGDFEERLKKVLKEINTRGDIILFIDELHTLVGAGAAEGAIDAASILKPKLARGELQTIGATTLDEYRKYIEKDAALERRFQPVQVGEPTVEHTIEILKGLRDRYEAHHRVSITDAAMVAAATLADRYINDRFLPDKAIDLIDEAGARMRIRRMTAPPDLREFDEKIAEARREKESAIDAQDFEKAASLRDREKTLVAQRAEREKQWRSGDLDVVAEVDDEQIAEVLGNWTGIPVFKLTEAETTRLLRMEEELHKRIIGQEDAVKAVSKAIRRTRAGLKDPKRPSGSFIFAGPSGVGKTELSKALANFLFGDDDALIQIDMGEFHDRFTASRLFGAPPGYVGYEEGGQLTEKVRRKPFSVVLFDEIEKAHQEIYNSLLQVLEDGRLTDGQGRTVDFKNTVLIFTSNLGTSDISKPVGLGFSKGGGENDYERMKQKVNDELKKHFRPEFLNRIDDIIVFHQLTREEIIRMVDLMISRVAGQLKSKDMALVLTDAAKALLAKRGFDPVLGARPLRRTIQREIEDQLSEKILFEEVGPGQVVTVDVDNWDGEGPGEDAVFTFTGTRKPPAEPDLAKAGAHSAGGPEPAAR

Sequence of ClpC1/P1/P2 complex (P9WPC9 whole entry, one chain of several): as the sequence (P9WPC9 whole entry) above

In the case of `CCC(C)C(C(=O)NC1C(=O)N(C)C(C(C)O)C(=O)NC(C(C)C)C(=O)N(C)C(CC(C)C)C(=O)NC(C(C)C)C(=O)N(C)C(C(C)C)C(=O)N(C)C(Cc2c[nH]c3cccc(OC)c23)C(=O)NC(C(C)C)C(=O)NC(C(O)c2ccccc2)C(=O)NC(C(C)C)C(=O)OC1C)N(C)C(=O)C(NC(=O)C(C(C)C)N(C)C)C(C)C` (centres unmarked) [ECU, ecumicin] (ξNMe2Val-V[NMeI]T[NMeT]V[NMeL]V[NMeV][NMeTrp(4-OMe)]V[X1]V; ester 3-C; configuration not given here), the MBC [1] was 1.5 µM (≈ 2.4 µg/mL), the MIC [2] was 0.16 µM (≈ 0.256 µg/mL) and the MIC (M. chelonae (ATCC 35752)) was 0.97 µM (≈ 1.55 µg/mL). For the same molecule, the MIC (M. marinum (ATCC 927)) was 0.95 µM (≈ 1.52 µg/mL), the MIC [3] was > 32 µM and the MIC [4] was > 32 µM. For the same molecule, the MIC [5] was > 32 µM, the MIC (M. avium (ATCC 15769)) was 0.35 µM (≈ 0.56 µg/mL) and the MBC (M. tuberculosis) was 0.34 µM (≈ 0.544 µg/mL). For the same molecule, the MIC [6] was 1.7 µM (≈ 2.72 µg/mL), the MIC (M. kansasii (ATCC 12478)) was 4 µM (≈ 6.4 µg/mL) and the MIC (M. bovis (ATCC 35734)) was < 0.2 µM. The terminal half-life [7] was 3 h, the “effect on proteolytic activity of ClpC1/P1/P2 (FITC-casein degradation)” value (ClpC1/P1/P2 complex) was “inhibits ClpC1 proteolysis” and the MIC [8] was > 63 µM. For the same molecule, the MIC [9] was 0.13 to 0.38 µM (≈ 0.208 to 0.608 µg/mL) and the “effect on ClpC1 ATPase activity” value (ClpC1) was “stimulates the ATPase activity”.
